Experimental data taken from patent US20250041231A1, “5-AMINOLEVULINIC ACID FOR THE LOCAL TREATMENT OF INFLAMMATORY BOWEL DISEASE” (Intract Pharma Limited, priority 2019, published 2025).
“Also recorded” adds a separate entry of the source.

How the values were obtained:
[1] = Mouse colon model (faecal slurry): stability of 5-ALA with SFC and formation of PpIX; format: in vitro ADME, C57BL6 mice
Description: (§1) A mouse colonic model based on a mixed fecal inoculum was used to mimic the luminal environment of the mouse large intestine. An anaerobic workstation (Electrotek 500TG™ workstation, Electrotek, West Yorkshire, UK) maintained at 37° C. and 70% relative air humidity was used to set up the model. Three healthy male C57BL6 mice were sacrificed and the fecal contents were collected. The fecal material was transferred in the anaerobic workstation and diluted with freshly prepared basal medium to obtain 20% w/w slurry by homogenization. The basal media provides nutrients and growth factors to the microbiota allowing viability for upto 24 hours. […]
(§2) For 5-ALA analysis, a 150×4.6-mm Jupiter 5 μm 300 Å (Phenomenex, Torrance, CA) C18 column was used using 70% water (0.1% TFA) and 30% acetonitrile (0.1% TFA) as the mobile phase for elution, at a flow rate of 1 ml/min. The analysis was operated at room temperature and fluorescence detection wavelength was set at 395/480 nm excitation/emission. […]
(§3) For PpIX analysis, a 150×4.6-mm Aeris 3.6 μm 100 Å (Phenomenex, Torrance, CA) C18 column was used using 70% acetonitrile and 30% 10 mM TBA solution (pH 7.5) as the mobile phase at a flow rate of 1 ml/min. The analysis was operated at room temperature and fluorescence detection wavelength was set at 400/630 nm excitation/emission. […]

[2] = Ussing chamber: human colon tissue penetration and permeability of 5-ALA with SFC, metabolite formation; format: in vitro ADME
Description: (§4) The chambers are made of solid acrylic and supports the tissue membrane in such a way that each side of the membrane is isolated and faces a different chamber representing the luminal (apical) and blood (basal) compartments. The working system consists of a unit to fit a maximum of six vertical chambers, a gas manifold for carbogen purging (95% O2, 5% CO2) and a heater block to maintain the temperature of the chambers at 37° C. during the experiments with the use of a circulating water bath. The chambers are two-piece assemblies held together by a high spring-tension retaining ring to ensure leak-free operation during the experiments.
(§5) The EVOM™ voltohmmeter (World Precision Instruments, Inc., Hertfordshire, UK) and Ag/AgCl electrodes (Harvard Apparatus, Cambridge, UK) were used to measure the trans-epithelial electrical resistance (TEER) of the tissue samples. TEER monitors the presence of functional tight junctions, which are responsible for the barrier function and which limit Paracellular permeation of water and solutes. […]
(§6) For the tissue penetration studies, the freshly excised colon of human subject or C57BL6 mice was collected and transferred to an ice-cold solution of Krebs-Bicarbonate Ringer solution (KBr) of pH 7.4. […] The TEER was continuously monitored during the experiment to confirm the viability and integrity of the tissue.

[3] = Ussing chamber: mouse colon tissue penetration and permeability of 5-ALA with SFC, metabolite formation; format: in vitro ADME, C57BL6 mice; settings: mouse colon vs human colon, 3 hours
Description: as §4, §5, §6

[4] = Human colon model (faecal slurry): stability of 5-ALA with SFC and formation of PpIX; format: in vitro ADME
Description: as §1, with “human” for “mouse”, “model.” for “model. Three healthy male C57BL6 mice were sacrificed and the fecal contents were collected.”, “up to” for “upto”, “hours. The homogenized bacterial media was sieved through an open mesh fabric (SefarNitex™, pore size 350 μm) to remove any nonhomogeneous fibrous material.” for “hours.”
as §2, §3

[5] = tested on: DSS induced colitis mouse model
[6] = intra-colonic vs oral, 10 and 100 mg/kg, day 10
[7] = oral vs intra-colonic dosing, day 10

Structure (SMILES): NCC(=O)CCC(=O)O [5-ALA, 5-aminolevulinic acid]
- Stability of 5-ALA in mouse colon fluid ([1]; 6 mg/ml 5-ALA + 1 mg/ml SFC, 10% w/w mouse faecal slurry, up to 24 hrs): completely stable
- Conversion of 5-ALA into PpIX in mouse colon fluid ([1]; in the presence of SFC): no conversion
- Tissue conc. of 5-ALA ([2]; human colon vs mouse colon, Ussing chamber, 3 hours): higher in human colon compared to mouse colon
- Penetration of 5-ALA into colon tissue ([2]; human colonic tissue in vitro): readily able to penetrate effectively into colon tissue
- Permeability of 5-ALA across the tissue [3]: higher
- Stability of 5-ALA in human colon fluid ([4]; 6 mg/ml 5-ALA + 1 mg/ml SFC, 10% w/w human faecal slurry, up to 24 hrs): completely stable; also recorded: very stable
- Conversion of 5-ALA into PpIX in human colon fluid ([4]; in the presence of SFC): no conversion; also recorded: no metabolism
- Reduction of expression of IL-1β in the colon tissue and plasma [5, 6]: significantly better than after oral administration
- Reduction of expression of IL-6 in the colon tissue and plasma [5, 6]: significantly better than after oral administration
- Reduction of expression of TNF-α in the colon tissue and plasma [5, 6]: significantly better than after oral administration
- Expression of HO-1 in the colon tissue and plasma ([5]; oral vs intra-colonic dosing): no significant difference
- Expression of 5-ALA metabolite PpIX in the plasma ([5]; oral vs intra-colonic dosing, 10 and 100 mg/kg): Significantly enhanced expression of PpIX was observed in the plasma after oral dosing, but not intra-colonic dosing
- Bilirubin expression in the colon tissue and plasma [5, 7]: no significant difference
- Biliverdin expression in the colon tissue and plasma [5, 7]: no significant difference
- Reduction in inflammatory cytokines compared with 5-ASA ([5]; vs 5-ASA 50 mg/kg oral and intra-colonic): superior to 5-ASA given both orally and intra-colonic
